Measurements published in patent US8173441B2, “Method for applying NMR for ligand discovery or as a drug screening tool” (Universiteit Leiden, priority 2001, dated 2012).
Entries after “also recorded” stand apart in the source; their conditions may differ.

Experiments:
[1] = target: T1, C-terminal SH2 domain (CSH2) from the 85 kDa, alpha form of the regulatory subunit of bovine phosphoinositide 3′ kinase (Bos taurus, UniProt P23727); test: Target immobilized NMR screening (TINS): 1H-NMR difference spectrum, control resin vs resin with CSH2 covalently bound; assay type: binding; settings: 1 mM each compound in D2O, d11-Tris pH 7.5, 50 mM NaCl, CSH2 on Actigel ALD resin
T1 construct: the c-terminal SH2 domain of p85alpha was prepared as previously described by Siegal et al; made in house
From the text: In this example, it was aimed to investigate whether binding of a small molecule to a target bound to the resin would be detectable in the ^1H spectrum. The test system utilized the C-terminal SH2 domain (CSH2) from the 85 kDa, alpha form of the regulatory subunit of bovine phosphoinositide 3′ kinase. This small (110 residues) protein domain has well characterized binding specificity.
To see whether the method of the present invention provides a mode appropriate for efficient screening of a large library of compounds, CSH2 was immobilized on a chemically activated chromatography resin of Actigel ALD by covalent attachment. Attachment occurs via primary amines on the surface of CSH2 as described in the manufacturers literature and therefore is (approximately) randomly oriented.
In detail, the c-terminal SH2 domain of p85alpha was prepared as previously described by Siegal et al. in J. Mol. Biol. 276(1998), 461-478. 11 mg of this domain CSH2 in a buffer consisting of 25 mM HEPES pH 7.5 and 100 mM NaCl was incubated with 1 ml of Actigel ALD (Sterogene, Carlsbad, Calif., USA) according to the manufacturers protocol. This amount corresponds to a 1 mM solution concentration. Unbound sites on the gel were blocked using d11-Tris (Cambridge Isotopes, Andover, Mass., USA). The control resin was derivatized exclusively with d11-Tris.
The potential ligands were dissolved in 99% D2O with d11-Tris.
In all cases, the control and experimental target containing resins were washed three times with the same mixture of test substances.
All NMR spectra were recorded on a Bruker (Bruker, Germany) DMX 600 spectrometer. Spectra typically consisted of 16 to 64 transients of 2 k complex points, were apodized using a sin^2 function and automatically baseline corrected using the supplied XWINNMR software provided by the manufacturer, Bruker, and methods described in the manufacturers literature. Difference spectra were also calculated using XWINNMR

[2] = system: 26 base synthetic double stranded 5′ biotinylated oligonucleotide (DNA); test: TINS: 1H-NMR difference spectrum, streptavidin-sepharose resin vs resin with biotinylated oligonucleotide bound; assay type: binding; settings: 1 mM solution in D2O; oligonucleotide on streptavidin-sepharose resin
SH2 domain (CSH2) = SH2 domain (CSH2) (Bos taurus, UniProt P23727); settings: mimic of the natural ligand; cited from earlier work
SH2 domain (CSH2), sequence (P23727 624-718 limits assumed): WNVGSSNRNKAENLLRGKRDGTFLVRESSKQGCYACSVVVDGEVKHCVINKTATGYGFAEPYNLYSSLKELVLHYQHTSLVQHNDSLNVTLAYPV

T1 sequence (P23727 624-718 limits assumed): as above

Compound	binding to immobilized CSH2 (diminution of peaks / peaks in the difference spectrum) [1]	binding to immobilized oligonucleotide (peaks in the difference spectrum) [2]	further results
N=C(N)NCCC[C@H](N)C(=O)O [arginine]	do not bind	do not bind	
NCC(=O)O [glycine]	do not bind		
c1c[nH]cn1 [imidazole, Imidazole]		do not bind	
CSCC[C@H](N)C(=O)O [methionine]			binding to immobilized CSH2 (diminution of peaks / peaks in the difference spectrum) ([1]; listed as M): small residual peaks; also recorded: Weak binding
N[C@@H](Cc1ccc(OP(=O)(O)O)cc1)C(=O)O [phosphotyrosine]	only peaks derived from phosphotyrosine	do not bind	Kd (SH2 domain (CSH2)): ~600 µM; binding to immobilized CSH2 (diminution of peaks / peaks in the difference spectrum) ([1]; listed as pY): clear diminution of the peaks; also recorded: relatively tight binding
NCCCNCCCCNCCCN [spermine]		Only peaks derived from spermine; also recorded: can be detected; also recorded: only spermine peaks remain	
